Data as given in publication PMC5590105 (Chemical communications (Cambridge, England), 2017).

Biological target: T1, heparanase (Homo sapiens, UniProt Q9Y251)
T1 sequence (Q9Y251 158-543 limits assumed): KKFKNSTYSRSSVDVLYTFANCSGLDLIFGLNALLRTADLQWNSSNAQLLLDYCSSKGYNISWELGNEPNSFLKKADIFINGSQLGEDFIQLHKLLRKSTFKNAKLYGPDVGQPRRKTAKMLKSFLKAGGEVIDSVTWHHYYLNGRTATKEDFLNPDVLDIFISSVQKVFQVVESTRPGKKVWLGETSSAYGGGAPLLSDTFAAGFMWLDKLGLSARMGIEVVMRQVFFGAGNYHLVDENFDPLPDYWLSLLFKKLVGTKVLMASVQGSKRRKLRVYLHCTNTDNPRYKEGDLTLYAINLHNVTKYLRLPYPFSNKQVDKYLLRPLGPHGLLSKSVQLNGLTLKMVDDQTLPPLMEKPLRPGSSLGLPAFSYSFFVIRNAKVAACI
T1 sequence (Q9Y251 36-109 limits assumed): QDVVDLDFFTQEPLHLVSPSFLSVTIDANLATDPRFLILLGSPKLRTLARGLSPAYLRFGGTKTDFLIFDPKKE
Experiment: colorimetric WST-1 assay of cleavage by heparanase
Type: biochemical
Conditions: WST-1 colorimetric assay, over 21 h

Compound: CO[C@H]1O[C@H](COS(=O)(=O)O)[C@@H](O[C@@H]2O[C@@H](C(=O)O)[C@@H](O[C@H]3O[C@H](COS(=O)(=O)O)[C@@H](O[C@@H]4O[C@H](C(=O)O)[C@@H](O[C@H]5O[C@H](COS(=O)(=O)O)[C@@H](O)[C@H](O)[C@H]5NS(=O)(=O)O)[C@H](O)[C@H]4O)[C@H](OS(=O)(=O)O)[C@H]3NS(=O)(=O)O)[C@H](O)[C@H]2OS(=O)(=O)O)[C@H](O)[C@H]1NS(=O)(=O)O [Fondaparinux]
- hydrolysis by heparanase: readily cleaved by heparanase
